Values joined by “and” are separate entries in the source; they are usually repeats but may differ in a detail not shown here. Identical values can stand only once.
Assays:
aldose reductase = target: T1, aldose reductase (Bos taurus, UniProt P16116); experiment: inhibition of aldose reductase enzyme activity (partially purified enzyme from calf lens); type: biochemical; conditions: / indicates results of duplicate tests; for inhibition at 1 µM: 10^-6 M
T1 construct: partially purified aldose reductase enzyme obtained from calf lens; from tissue; host or cells: calf lens
Procedure: Spiro-oxazolidindiones prepared as described in the previous examples were tested for their ability to reduce or inhibit aldose reductase enzyme activity, following the procedure described in U.S. Pat. No. 3,821,383 and based on the procedure of Hayman et al., Journal of Biological Chemistry, 240, 877 (1965). The substrate employed was partially purified aldose reductase enzyme obtained from calf lens. The results obtained with each compound at a concentration of 10^-6 M are expressed as percent inhibition of enzyme activity.

[1] = test system: sorbitol accumulation in the sciatic nerve of streptozotocinized (i.e., diabetic) rats; experiment: inhibition of sorbitol accumulation in the sciatic nerve of streptozotocinized (diabetic) rats; type: in vivo; conditions: measured at 27 hours, vs untreated, values below 20 not always significant; for % Inhibition at mg/kg Dosage 1.5: 1.5 mg/kg orally at 4, 8 and 24 hours after streptozotocin
Procedure: Spiro-oxazolidindiones prepared as described in the above examples were tested for their ability to reduce or inhibit sorbitol accumulation in the sciatic nerve of streptozotocinized (i.e., diabetic) rats by the procedure essentially described in U.S. Pat. No. 3,821,383. In the present study, the amount of sorbitol accumulation in the sciatic nerves was measured 27 hours after induction of diabetes. The compounds were administered orally at the dose levels indicated at 4, 8 and 24 hours following the administration of streptozotocin. The results obtained in this manner are presented below in terms of percent inhibition afforded by the test compound as compared to the case where no compound was administered (i.e., the untreated animal where sorbitol levels normally rise from approximately […]. tissue to as high as 400 mM/g. tissue in the 27-hour test period). In this test values below 20 are not always experimentally and statistically significant.

SMILES | inhibition at 1 µM (aldose reductase) | % Inhibition at mg/kg Dosage 1.5 [1] | % Inhibition at 10^-6 M (aldose reductase) | % Inhibition at mg/kg Dosage 5 ([1]; 5 mg/kg orally at 4, 8 and 24 hours after streptozotocin) | % Inhibition at mg/kg Dosage 15 ([1]; 15 mg/kg orally at 4, 8 and 24 hours after streptozotocin)
O=C1NC(=O)C2(CCSc3ccc(F)cc32)O1 (stereo not drawn) [Example 31, 6-Fluoro-spiro[4H-2,3-dihydrobenzothiopyran(4,5')oxazolidin]-2',4'-dione] | 61% | – | – | – | –
O=C1NC(=O)C2(CCOc3ccc(F)cc32)O1 (stereo not drawn) [Example 28, 6-Fluoro-spiro[4H-2,3-dihydrobenzopyran(4,5')oxazolidin]-2',4'-dione] | 65% | 8% | – | – | –
O=C1NC(=O)C2(CCSc3ccc(Cl)cc32)O1 (stereo not drawn) [Example 34, 6-Chloro-spiro[4H-2,3-dihydrobenzothiopyran(4,5')oxazolidin]-2',4'-dione] | – | 14% | 70% and 100% | – | –
Cc1cc(Cl)cc2c1OCCC21OC(=O)NC1=O (stereo not drawn) [Example 33, 6-Chloro-8-methyl-spiro[4H-2,3-dihydrobenzopyran(4,5')oxazolidin]-2',4'-dione] | 81% | 33% | 99% | – | –
O=C1NC(=O)C2(CCSc3ccccc32)O1 (stereo not drawn) [Example 30, Spiro[4H-2,3-dihydrobenzothiopyran(4,5')oxazolidin]-2',4'-dione] | 42% | – | – | – | –
O=C1NC(=O)C2(CCOc3ccc(Cl)cc32)O1 (stereo not drawn) [Example 3, 6-Chloro-spiro[4H-2,3-dihydrobenzopyran(4,5')oxazolidin]-2',4'-dione] | 86% | 28% | 68% | – | –
O=C1NC(=O)C2(CCOc3ccc(Br)cc32)O1 (stereo not drawn) [Example 29, 6-Bromo-spiro[4H-2,3-dihydrobenzopyran(4,5')oxazolidin]-2',4'-dione] | 100% | 35% | 87% | – | –
O=C1NC(=O)C2(CCOc3c(Cl)cc(Cl)cc32)O1 (stereo not drawn) [Example 32, 6,8-Dichloro-spiro[4H-2,3-dihydrobenzopyran(4,5')oxazolidin]-2',4'-dione] | 100% | 44% | – | – | –
O=C1NC(=O)C2(CCOc3ccc(Cl)cc32)O1 (single isomer, unassigned; (-)) [Example 35, (-)-6-Chloro-spiro[4H-2,3-dihydrobenzopyran(4,5')oxazolidin]-2',4'-dione] | 96% | 41% | – | 67% | 88%

From patent US4200642A, “Spiro-oxazolidindiones” (Pfizer Inc., priority 1978, dated 1980)
